Among the data in patent US20050014768A1, “Use of 4-oxobutanoic acid derivatives in the treatment of inflammation” (priority 2001, published 2005) are V oedema and Reduction in oedema values, retold here.

This assay has as its system carrageenan-induced inflammatory oedema of the rat paw. The experiment in a line: Test of carrageenan-induced inflammatory oedema (rat paw, plethysmometry). The following applies: for V oedema: difference in paw volume before and three hours after carrageenan, one hour before carrageenan; for Reduction in oedema: versus controls, three hours after carrageenan. The class given is in vivo, Rat of Wistar type. On the procedure: The compounds of the formula (I) were subjected to biological tests designed to reveal their anti-inflammatory activity. The in vivo activity of the compounds of the formula (I) was studied in an experimental model of inflammation in rats. Inflammatory oedema of the rat paw is induced by intradermal injection of carrageenan (1% V/V) into the hind paw of the rat. This oedema is measured by plethysmometry according to the method of Winter C. A. et al. (Proc. Soc. Exp. Biol. Med.; (1962); 111; 544-547). The substances with an anti-inflammatory effect bring about a reduction in the oedema thus created. Indomethacin is used as anti-inflammatory reference in the test.
Animal model: Rat of Wistar type
Anti-inflammatory reference: indomethacin from the company Sigma
Control: 0.5% methylcellulose hydrogel.
After fasting for one day, the volume of the right hind paw is measured [V paw]. The test compounds, the reference and the control are administered orally in a volume of 10 ml/kg. One hour after administration, oedema is induced by an intraplantar injection of 50 microlitres of carrageenan (1%, VN) hydrogel into the right hind paw. The volume of this paw is measured three hours after inducing the oedema. The intensity of the oedema [V oedema] is evaluated by the difference in the volume of the paw, before and three hours after the injection of carrageenan.
A general note: The carrageenan paw model is a standard test of acute inflammation.

Consider `O=C(CC(Cc1ccccc1)C(=O)O)c1ccc(F)cc1` (single isomer, unassigned; (-)) [P, (−)-2-benzyl-4-(4-fluorophenyl)-4-oxobutanoic acid], for which the V oedema came to 0.42 mL (oral 30 mg), 0.11 mL (oral 100 mg) and 0.17 mL (oral 300 mg). The Reduction in oedema is, setting by setting: (oral 30 mg) −32%; (oral 100 mg) −83%; (oral 300 mg) −73%.

In the case of `COc1ccc2c(c1)c(CC(=O)O)c(C)n2C(=O)c1ccc(Cl)cc1` [Indomethacin, indomethacin, reference compound], under “oral, dose not given”, the V oedema worked out at 0.20 mL and the Reduction in oedema is −67%.
